Measured values reported in patent publication US20190322697A1, “2'2'-CYCLIC DINUCLEOTIDES” (Institute of Organic Chemistry and Biochemistry, ASCR, V.V.I, priority 2018, published 2019).
pEC50: −log10 of the molar value.

Legend:
[1] = target: T1, AQ STING (G230A-R293Q) (Homo sapiens, UniProt Q86WV6, G230A/H232R/R293Q); assay: Differential Scanning Fluorimetry with AQ STING; assay type: binding; details: thermal shift, truncated human AQ STING 0.1 mg/ml, 150 μM CDN
T1 construct: truncated human WT STING or AQ STING (amino acid residues 140-343); 8xHis (N, cleaved yes); SUMO (N, cleaved yes); made in house; host or cells: E. coli Rosetta-gami B (DE3)
T1 sequence (Q86WV6 140-343 G230A/H232R/R293Q): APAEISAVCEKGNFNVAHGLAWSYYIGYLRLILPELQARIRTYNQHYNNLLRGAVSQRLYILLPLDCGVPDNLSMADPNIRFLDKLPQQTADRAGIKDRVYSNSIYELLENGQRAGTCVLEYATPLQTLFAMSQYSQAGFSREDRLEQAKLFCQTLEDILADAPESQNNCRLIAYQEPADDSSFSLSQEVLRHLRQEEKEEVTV
Protocol: (§1) Purified PCR products were cleaved with restriction enzymes BamHI (cat. # R0136S, NEB, Ipswich, USA) and NotI (cat. # R0189S, NEB, Ipswich, USA) and cloned into the pSUMO vector linearized with the identical enzymes.
(§2) DNase I (cat. # D5025, Sigma Aldrich, Czech Republic) and RNase A (cat. # R6513, Sigma Aldrich, Czech Republic) were added (final concentration 50 μg/ml) together with MgCl2 (final concentration 5 mmol·l^−1) to the homogenate and bacteria were lysed using French Press G-M™ High-Pressure Cell Press Homogenizer (1500 psi, 3 cycles). […] The resin was poured into a chromatography column, washed with 50 ml buffer A (50 mmol·l^−1 TrisCl (pH 8.0), 800 mmol·l^−1 NaCl, 3 mmol·l^−1 3-mercaptoethanol; 10% glycerol; 20 mmol·l^−1 imidazole) and 8-His-SUMO tagged STING proteins were eluted with 15 ml buffer A containing 300 mmol·l^−1 imidazole. […] Proteins were concentrated with Amicon® Ultra-15 10 K device (cat. # UFC901008, Merck Millipore, Billerica, USA) and flash frozen in liquid N2.
(§3) 20 μL solutions of the reaction mixtures were pipetted in triplicates into 96 well optical reaction plates and thermal denaturation of samples were performed on real time PCR cycler (LightCycler® 480 Instrument II—Roche, Basel, Switzerland). The first derivative of the thermal denaturation curves was performed to calculate denaturing temperatures of STING-CDN complexes and STING apoproteins. The thermal shift for each CDN was calculated by subtracting the average denaturing temperature of STING apoprotein from the average denaturing temperature of STING CDN complex.

[2] = target: T2, WT STING (Homo sapiens, UniProt Q86WV6, H232R); assay: Differential Scanning Fluorimetry with WT STING; assay type: binding; design: truncated human WT STING or AQ STING (amino acid residues 140-343); 8xHis (N, cleaved yes); SUMO (N, cleaved yes); made in house; host or cells: E. coli Rosetta-gami B (DE3); details: thermal shift, truncated human WT STING 0.1 mg/ml, 150 μM CDN
Protocol: as §1, §2, §3
Target sequence in this assay (Q86WV6 140-343 H232R): as the sequence (Q86WV6 140-343 G230A/H232R/R293Q) above, with A91G, Q154R counted along it

[3] = target: T2, WT STING; assay: Digitonin assay using 293T wtSTING-FL reporter cells; assay type: cell-based; details: 293T wtSTING-FL cells, ISRE firefly luciferase reporter, digitonin buffer 30 min, then 5 hours
Excerpt: Two complementary oligonucleotides of the sequence […] […] […] […] […] […] […] The oligonucleotides were mixed in equal molar amounts, hybridized, and cleaved by restriction endonucleases HindIII (cat. #. R0104S, NEB, Ipswich, USA) and BglII (cat. # R0144S, NEB, Ipswich, USA). Ultimately, they were ligated into plasmid pGL4.27 (cat. # E6651, Promega, Madison, USA) linearized with the same enzymes. As result the sequence with four ISRE sites was placed upstream of the minimum promoter of firefly luciferase reporter gene.
After 5 minutes incubation at room temperature (RT), 250 μL of the mixture was added dropwise to the cells in one well. Cells were incubated 36 hours at 37° C. with 5% CO2, and then detached with 0.05% Trypsin and 0.22 g/L EDTA (both cat. # L0941, Biowest, Riverside, USA).
Transfected cells were seeded onto poly-D-lysine coated six well plates at density 50,000 cells per 1 cm^2 in DMEM medium with high glucose containing 10% heat inactivated FBS, 30 μg/mL blasticidin (cat. # ant-bl-05, InvivoGen, San Diego, USA), 0.06 mg/ml Penicillin G and 0.1 mg/ml Streptomycin Sulfate (both cat. #. L0018, Biowest, Riverside, USA). The medium was replenished every 3-4 days until visible colonies of cells resistant to blasticidin were formed.
Blasticidin resistant cells stably expressing WT STING were further transfected with pGL64.27-4×ISRE plasmid following the same procedure as described above. […] Homogeneous culture of stably double transfected cells was prepared by limiting dilution of cells in 96 well plates and wells with cells were selected that originated from a single cell.
The medium was removed next day and three fold serial dilutions of compounds in Digitonin buffer containing 50 mmol·l^−1 HEPES (cat. # H3375, Sigma Aldrich, Czech Republic) pH 7.0, 100 mmol·l^−1 KCl, 3 mmol·l^−1 MgCl2, 0.1 mmol·l^−1 DTT (cat. #D0632, Sigma Aldrich, Czech Republic), 85 mmol·l^−1 Sucrose (cat. # S7903, Sigma Aldrich, Czech Republic), 0.2% BSA (cat. # A2153, Sigma Aldrich, Czech Republic), 1 mmol·l^−1 ATP (cat. # A1852, Sigma Aldrich, Czech Republic), 0.1 mmol·l^−1 GTP (cat. # G8877, Sigma Aldrich, Czech Republic), and 10 μg/mL Digitonin A (cat. # D141, Sigma Aldrich, Czech Republic) were added to the cells. The buffer was removed after 30 minutes incubation at 37° C. with 5% CO2, the cells were washed once with 100 μl of cultivation medium, and 100 μl of medium was added to each well. The plates with cells were incubated for 5 hours at 37° C. with 5% CO2, 50 μl of the medium was removed and 30 μl of ONE-Glo™ Luciferase Assay System reagent (cat. # E6120, Promega, Madison, USA) was added to each well. Luminesce was read on Synergy H1 (Biotek, Winooski, USA).
Target sequence in this assay (Q86WV6 whole entry H232R, the tested form may be a part): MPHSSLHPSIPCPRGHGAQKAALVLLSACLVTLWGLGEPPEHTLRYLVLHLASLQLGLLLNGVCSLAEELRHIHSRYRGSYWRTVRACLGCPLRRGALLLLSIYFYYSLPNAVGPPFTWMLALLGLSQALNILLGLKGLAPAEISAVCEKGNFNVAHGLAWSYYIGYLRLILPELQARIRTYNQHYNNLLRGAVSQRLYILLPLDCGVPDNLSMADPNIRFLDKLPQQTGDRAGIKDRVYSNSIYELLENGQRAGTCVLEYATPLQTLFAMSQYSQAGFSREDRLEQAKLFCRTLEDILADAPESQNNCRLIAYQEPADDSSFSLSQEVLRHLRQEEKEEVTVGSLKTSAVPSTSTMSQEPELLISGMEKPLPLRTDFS

Structure (SMILES) | DSF ΔTm AQ STING [1] | DSF ΔTm WT STING [2] | pEC50 [3]
Nc1nc2c(ncn2[C@@H]2O[C@@H]3COP(=O)(O)CO[C@@H]4[C@H](O)[C@@H](COP(=O)(O)CO[C@@H]2[C@@H]3O)O[C@H]4n2cnc3c(=O)[nH]c(N)nc32)c(=O)[nH]1 [Example 4, 9,9′-((1R,7R,9R,10R,16R,18R,19R,20R)-4,13,19,20-tetrahydroxy-4,13-dioxido-2,5,8,1 1,14,17-hexaoxa-4,13-diphosphatricyclo[14.2.1.1^7,10]icosane-9,18-diyl)bis(2-amino-1,9-dihydro-6H-purin-6-one)] | 0.3 °C | 0.3 °C | < 4.30
Nc1nc2c(ncn2[C@@H]2O[C@@H]3COP(=O)(O)O[C@H]4[C@@H](O)[C@H](n5cnc6c(=O)[nH]c(N)nc65)O[C@@H]4COP(=O)(O)O[C@H]3[C@H]2O)c(=O)[nH]1 [3′3′-c-di-GMP, reference compound] | 7.7 °C | 2.6 °C | 5.24
Nc1ncnc2c1ncn2[C@@H]1O[C@@H]2COP(=O)(O)CO[C@H]3[C@H](O)[C@@H](COP(=O)(O)CO[C@H]1[C@@H]2O)O[C@H]3n1cnc2c(N)ncnc21 [Example 6, (1S,7R,9R,10S,16R,18R,19R,20R)-9,18-bis(6-amino-9H-purin-9-yl)-4,13,19,20-tetrahydroxy-2,5,8,11,14,17-hexaoxa-4,13-diphosphatricyclo[14.2.1.1^7,10]icosane 4,13-dioxide] | −0.3 °C | 0.0 °C | < 4.30
Nc1ncnc2c1ncn2[C@@H]1O[C@@H]2COP(=O)(O)CO[C@@H]3[C@@H](O)[C@@H](COP(=O)(O)CO[C@@H]1[C@H]2O)O[C@H]3n1cnc2c(N)ncnc21 [Example 7, (1R,7R,9R,10R,16R,18R,19S,20S)-9,18-bis(6-amino-9H-purin-9-yl)-4,13,19,20-tetrahydroxy-2,5,8,11,14,17-hexaoxa-4,13-diphosphatricyclo[14.2.1.1^7,10]icosane 4,13-dioxide] | 0.0 °C | 0.0 °C | < 4.30
Nc1ncnc2c1ncn2[C@@H]1O[C@@H]2COP(=O)(O)CO[C@H]3[C@H](O)[C@@H](COP(=O)(O)O[C@@H]1[C@@H]2O)O[C@H]3n1cnc2c(N)ncnc21 [Example 5, (1R,6R,8R,9S,15R,17R,18R,19R)-8,17-bis(6-amino-9H-purin-9-yl)-3,12,18,19-tetrahydroxy-2,4,7,10,13,16-hexaoxa-3,12-diphosphatricyclo[13.2.1.1^6,9]nonadecane 3,12-dioxide] | 0.2 °C | −0.9 °C | < 4.30
Nc1ncnc2c1ncn2[C@@H]1O[C@@H]2COP(=O)(O)O[C@@H]3[C@H](F)[C@@H](COP(=O)(O)CO[C@@H]1[C@@H]2F)O[C@H]3n1cnc2c(N)ncnc21 [Example 8, (1S,6R,8R,9S,15R,17R,18R,19R)-8,17-bis(6-amino-9H-purin-9-yl)-18,19-difluoro-3,12-dihydroxy-2,4,7,10,13,16-hexaoxa-3,12-diphosphatricyclo[13.2.1.1^6,9]nonadecane 3,12-dioxide] | 11.5 °C | 3.6 °C | 5.96

The next compounds have a higher pEC50 [3] than those just listed; values first:

DSF ΔTm AQ STING [1] | DSF ΔTm WT STING [2] | pEC50 [3] | Structure (SMILES)
19.0 °C | 12.0 °C | 7.30 | Nc1nc2c(ncn2[C@@H]2O[C@@H]3COP(=O)(O)COC4C(O)[C@@H](COP(=O)(O)OC2C3O)O[C@H]4n2cnc3c(N)ncnc32)c(=O)[nH]1 (stereo partly drawn) [Example 3, 2-amino-9-((1R,6R,8R,9R,15R,17R,18R,19R)-8-(6-amino-9H-purin-9-yl)-3,12,18,19-tetrahydroxy-3,12-dioxido-2,4,7,10,13,16-hexaoxa-3,12-diphosphatricyclo[13.2.1.1^6]9nonadecan-17-yl)-1,9-dihydro-6H-purin-6-one]
16.5 °C | 9.0 °C | 6.82 | Nc1nc2c(ncn2[C@@H]2O[C@@H]3COP(=O)(O)O[C@@H]4[C@H](O)[C@@H](COP(=O)(O)CO[C@@H]2[C@@H]3O)O[C@H]4n2cnc3c(N)ncnc32)c(=O)[nH]1 [Example 2, 2-amino-9-((1R,6R,8R,9R,15R,17R,18R,19R)-17-(6-amino-9H-purin-9-yl)-3,12,18,19-tetrahydroxy-3,12-dioxido-2,4,7,10,13,16-hexaoxa-3,12-diphosphatricyclo[13.2.1.1^6,9]nonadecan-8-yl)-1,9-dihydro-6H-purin-6-one]
22.9 °C | 15.2 °C | 7.52 | Nc1nc2c(ncn2[C@@H]2O[C@@H]3COP(=O)(O)CO[C@@H]4[C@H](F)[C@@H](COP(=O)(O)O[C@@H]2[C@@H]3F)O[C@H]4n2cnc3c(N)ncnc32)c(=O)[nH]1 [Example 9, 2-amino-9-((1S,6R,8R,9S,15R,17R,18R,19R)-8-(6-amino-9H-purin-9-yl)-18,19-difluoro-3,12-dihydroxy-3,12-dioxido-2,4,7,10,13,16-hexaoxa-3,12-diphosphatricyclo[13.2.1.1^6,9]nonadecan-17-yl)-1,9-dihydro-6H-purin-6-one]
19.4 °C | 11.5 °C | 7.52 | Nc1nc2c(ncn2[C@@H]2O[C@@H]3COP(=O)(O)O[C@@H]4[C@H](O)[C@@H](COP(=O)(O)O[C@@H]2[C@@H]3O)O[C@H]4n2cnc3c(N)ncnc32)c(=O)[nH]1 [2′2′-cGAMP, reference compound]
9.3 °C | 2.6 °C | 6.52 | Nc1ncnc2c1ncn2[C@@H]1O[C@@H]2COP(=O)(O)O[C@H]3[C@@H](O)[C@H](n4cnc5c(N)ncnc54)O[C@@H]3COP(=O)(O)O[C@H]2[C@H]1O [3′3′-c-di-AMP, reference compound]
